According to PubChem BioAssay AID330 (DTP/NCI, 2004):
Several values for one entry are separate records, joined by “and”; a condition that tells them apart may be missing. Equal entries are not always repeated. Inconclusive results and toxic doses are left out.

Test system: P388 leukemia ip, CD2F1 mice, survival T/C
Assay: NCI In Vivo Anticancer Drug Screen. Data for tumor model P388 Leukemia (intraperitoneal) in CD2F1 (CDF1) mice
Details: endpoint: median survival time, higher = longer survival
Procedure, shortened: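 Mice carrying the transplanted tumor received test compound or vehicle. Survival was recorded in each group, and the value is the treated-group measurement divided by that of the vehicle-treated control group.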

[1] = dose: 25.0 mg/kg/injection, schedule: Q01DX005 (ip), vehicle: Klucel (hydroxypropylcellulose) (HPC)
[2] = dose: 50.0 mg/kg/injection, schedule: Q01DX005 (ip), vehicle: Klucel (hydroxypropylcellulose) (HPC)
[3] = dose: 6.25 mg/kg/injection, schedule: Q01DX009 (ip), vehicle: water
[4] = dose: 12.5 mg/kg/injection, schedule: Q01DX009 (ip), vehicle: water
[5] = dose: 50.0 mg/kg/injection, schedule: Q01DX009 (ip), vehicle: saline with Tween-80
[6] = dose: 100.0 mg/kg/injection, schedule: Q01DX009 (ip), vehicle: saline with Tween-80
[7] = dose: 200.0 mg/kg/injection, schedule: Q01DX009 (ip), vehicle: saline with Tween-80
[8] = dose: 100.0 mg/kg/injection, schedule: Q01DX005 (ip), vehicle: Klucel (hydroxypropylcellulose) (HPC)
[9] = dose: 200.0 mg/kg/injection, schedule: Q01DX005 (ip), vehicle: Klucel (hydroxypropylcellulose) (HPC)
[10] = dose: 50.0 mg/kg/injection, schedule: Q01DX005 (ip), vehicle: saline with Tween-80
[11] = dose: 100.0 mg/kg/injection, schedule: Q01DX005 (ip), vehicle: saline with Tween-80
[12] = dose: 200.0 mg/kg/injection, schedule: Q01DX005 (ip), vehicle: saline with Tween-80
[13] = dose: 60.0 mg/kg/injection, schedule: Q01DX005 (ip), vehicle: saline with Tween-80
[14] = dose: 120.0 mg/kg/injection, schedule: Q01DX005 (ip), vehicle: saline with Tween-80
[15] = dose: 240.0 mg/kg/injection, schedule: Q01DX005 (ip), vehicle: saline with Tween-80

## Clc1ccc(CNc2ncnc3[nH]ncc23)c(Cl)c1
dose: 100.0 mg/kg/injection, schedule: Q04DX003 (ip), vehicle: saline with Tween-80
  T/C: 100 % of control
dose: 200.0 mg/kg/injection, schedule: Q04DX003 (ip), vehicle: saline with Tween-80
  T/C: 100 % of control

## NNC(=O)N/N=C/c1ccccc1Cl
[1]
  T/C: 96 % of control
[2]
  T/C: 112 % of control

## COc1ccc(C)cc1NC(=O)/N=C1/NC(=O)CS1
dose: 50.0 mg/kg/injection, schedule: Q01DX009 (ip), vehicle: saline
  T/C: 91 % of control
dose: 100.0 mg/kg/injection, schedule: Q01DX009 (ip), vehicle: saline
  T/C: 97 % of control
dose: 200.0 mg/kg/injection, schedule: Q01DX009 (ip), vehicle: saline
  T/C: 91 % of control

## CCCCCCCCCCCCCC[N+]1([O-])CCOCC1
dose: 25.0 mg/kg/injection, schedule: Q04DX002 (ip), vehicle: saline
  T/C: 104 % of control
dose: 50.0 mg/kg/injection, schedule: Q04DX002 (ip), vehicle: saline
  T/C: 104 % of control
dose: 100.0 mg/kg/injection, schedule: Q04DX002 (ip), vehicle: saline
  T/C: 104 % of control and 94 % of control

## CC(=O)Oc1ccc(N2C(=O)C3C(C2=O)C2c4ccccc4C3C3CCCCN32)cc1 (stereo not drawn) (tested in a mixture with another compound)
[3]
  T/C: 101 % of control
[4]
  T/C: 111 % of control
dose: 25.0 mg/kg/injection, schedule: Q01DX009 (ip), vehicle: water
  T/C: 104 % of control
dose: 50.0 mg/kg/injection, schedule: Q01DX009 (ip), vehicle: water
  T/C: 102 % of control
dose: 100.0 mg/kg/injection, schedule: Q01DX009 (ip), vehicle: water
  T/C: 104 % of control

## CC(C)OC(=S)SCC(=O)c1ccc(Br)cc1
[5]
  T/C: 114 % of control
[6]
  T/C: 107 % of control
[7]
  T/C: 106 % of control

## COc1ccc(C2c3cc(O)c(OC)cc3Oc3cc(OC)c(O)cc32)cc1
[2]
  T/C: 87 % of control
[8]
  T/C: 94 % of control
[9]
  T/C: 96 % of control

## BrC(Br)(c1ccccc1)C1OCCO1
[5]
  T/C: 109 % of control
[6]
  T/C: 109 % of control
[7]
  T/C: 113 % of control

## O=C1C=C[C@]2(C(=O)O)[C@@H]3C=C[C@@H](CC3)[C@H]12
dose: 100.0 mg/kg/injection, schedule: Q04DX003 (ip), vehicle: Klucel (hydroxypropylcellulose) (HPC)
  T/C: 96 % of control
dose: 200.0 mg/kg/injection, schedule: Q04DX003 (ip), vehicle: Klucel (hydroxypropylcellulose) (HPC)
  T/C: 100 % of control
dose: 400.0 mg/kg/injection, schedule: Q04DX003 (ip), vehicle: Klucel (hydroxypropylcellulose) (HPC)
  T/C: 90 % of control

## Cc1c(C(N)=O)no[n+]1[O-]
dose: 30.0 mg/kg/injection, schedule: Q01DX005 (ip), vehicle: saline
  T/C: 100 % of control
dose: 60.0 mg/kg/injection, schedule: Q01DX005 (ip), vehicle: saline
  T/C: 99 % of control and 100 % of control
dose: 120.0 mg/kg/injection, schedule: Q01DX005 (ip), vehicle: saline
  T/C: 99 % of control and 100 % of control

## C1=C2OCOC2=CC2Cc3cc4c(cc3/C=C3\CC5=C(C=C3/C=C/12)OCO5)OCO4 (stereo not drawn)
[10]
  T/C: 92 % of control
[11]
  T/C: 93 % of control
[12]
  T/C: 98 % of control

## C[Si](C)(C)c1ccc2c(c1O)C(=O)c1ccccc1C2=O
[10]
  T/C: 100 % of control
[11]
  T/C: 100 % of control
[12]
  T/C: 102 % of control

## CCCC(NC(=O)OCc1ccccc1)C(=O)NC(Cc1c[nH]c2ccccc12)C(=O)O (stereo not drawn)
[2]
  T/C: 109 % of control
[8]
  T/C: 108 % of control
[9]
  T/C: 94 % of control

## C=C1C(=O)OC2/C=C(\COC(C)=O)CC/C=C(/COC(=O)C(C)CC)CC(O)C12 (stereo not drawn) (tested in a mixture with another compound)
dose: 2.0 mg/kg/injection, schedule: Q01DX009 (ip), vehicle: Klucel (hydroxypropylcellulose) (HPC)
  T/C: 119 % of control
dose: 4.0 mg/kg/injection, schedule: Q01DX009 (ip), vehicle: Klucel (hydroxypropylcellulose) (HPC)
  T/C: 114 % of control
dose: 8.0 mg/kg/injection, schedule: Q01DX009 (ip), vehicle: Klucel (hydroxypropylcellulose) (HPC)
  T/C: 113 % of control
dose: 16.0 mg/kg/injection, schedule: Q01DX009 (ip), vehicle: Klucel (hydroxypropylcellulose) (HPC)
  T/C: 111 % of control
dose: 32.0 mg/kg/injection, schedule: Q01DX009 (ip), vehicle: Klucel (hydroxypropylcellulose) (HPC)
  T/C: 120 % of control

## C=CCOc1cc2c(cc1C(C)c1ccc(OC)cc1)OCO2 (stereo not drawn)
[1]
  T/C: 104 % of control and 116 % of control
[11]
  T/C: 100 % of control and 109 % of control
dose: 200.0 mg/kg/injection, schedule: Q01DX005 (ip), vehicle: Klucel + Tween-80
  T/C: 202 % of control
[12]
  T/C: 106 % of control and 112 % of control
dose: 500.0 mg/kg/injection, schedule: Q01DX001 (ip), vehicle: saline with Tween-80
  T/C: 96 % of control
dose: 800.0 mg/kg/injection, schedule: Q01DX005 (ip), vehicle: saline with Tween-80
  T/C: 184 % of control
dose: 1000.0 mg/kg/injection, schedule: Q01DX001 (ip), vehicle: saline with Tween-80
  T/C: 122 % of control

## CC(=O)OCCNc1n[nH]c(=O)c2cnccc12
dose: 30.0 mg/kg/injection, schedule: Q01DX005 (ip), vehicle: saline with Tween-80
  T/C: 110 % of control
[13]
  T/C: 104 % of control
[14]
  T/C: 101 % of control
[15]
  T/C: 103 % of control

## CC(O)CN(Cc1c(O)ccc2ccccc12)CC(C)O (stereo not drawn)
[10]
  T/C: 108 % of control
[11]
  T/C: 110 % of control
[12]
  T/C: 99 % of control

## O=NNc1ccc(I)cn1
[3]
  T/C: 170 % of control
[4]
  T/C: 173 % of control and 190 % of control

## CCC(C)B1N(c2ccccc2)N=NN1C(C)(C)C (stereo not drawn)
[13]
  T/C: 97 % of control
[14]
  T/C: 97 % of control
[15]
  T/C: 105 % of control
